Data as given in patent publication US8329720B1 (Pisgah Laboratories, Inc., priority 2007, dated 2012).

How the values were obtained:
[1] = Intrinsic dissolution dose dumping profile (ethanol concentration in acidic media, FDA protocol); type: physicochemical; settings: for dose dumping dissolution profile: 0.1N HCl with 0, 5, 20 and 40% ethanol; for active released: in approximately sixty minutes; for release: 40% EtOH in 0.1N HCl; for dose dumping profile at the 5% ethanol condition: 5% ethanol in 0.1N HCl; for dose dumping profile at the 20% ethanol condition: 20% ethanol in 0.1N HCl
Excerpt: A general overview of this concern may be found at http://www.fda.gov/ohrms/dockets/AC/05/slides/2005-4187S2—02_Hussain.ppt. This Oct. 26, 2005 overview presentation by the deputy director OPS/CDER of the FDA and entitled “Preventing Alcohol Induced Dose Dumping is a Desired Product Design Feature” describes the dose-dumping phenomenon. Dose dumping can be employed by those with the deliberate intention of abusing the drug, but may also occur during the normal/moderate consumption of alcohol while taking a prescribed medication. Simply, dose dumping is that condition “in which the complete dose may be more rapidly released from the dosage form than intended, creating a potential safety risk”. Clearly, with the opioid narcotics, dose dumping for the intention of experiencing the “high” or rush, may have severe, even deadly consequences. The presentation further categorizes the results from dose dumping testing as either vulnerable, rugged or uncertain. If the dissolution profile in the presence of alcohol accelerates the release of the active ingredient, the product is classified as vulnerable and would likely not receive FDA market approval. In contrast, a rugged product design is achieved when the dissolution profile of the drug substance, again in the presence of alcohol, is identical to or is available to a lesser extent as compared to the control. The testing regimen recommended within the FDA's draft guidance includes determining the dissolution profile in 0.1N HCl solutions wherein the sample is tested in the medium and at increasing levels of ethanol, specifically at 5, 20 and 40% alcohol.
(§1) The opioid salts of the present invention were tested to determine their dissolution profile as a function of pH, and as a function of ethanol concentration in acidic media (dose dumping). To perform these experiments the buffered dissolution media and acidic ethanol solutions were prepared as identified herein, “Preparation of Solutions”. The test procedure was derived from the procedures cited in the United States Pharmacopeia and National Formulary (USP), numbers <1087> and <711>. The dose dumping procedure was adopted from the United States Food and Drug Administration's guidance regarding the dose dumping of oxymorphone. The sampling interval and regimen was defined and each sample analyzed by HPLC. Results from the HPLC analyses were plotted as a function of time and dissolution condition (FIG. 37 through FIG. 97 inclusive, and FIGS. 102-105, 109, 110, 114 and 115). This procedure was used to obtain the pH and dose dumping dissolution profiles disclosed herein. […] All activities within the procedure were conducted and executed for each of the compounds reported herein. Unless otherwise stated HPLC measurements were done and reported at ambient temperature and dissolution testing was done nominally at 37° C.
The following procedures were derived from the FDA Draft Guidance for Oxymorphone Hydrochloride (recommended in November, 2007).
(§2) The material which is to be subjected to dissolution is weighed using an analytical balance. 85.00-95.00 mg of the analyte was weighed and transferred to an International Crystals Laboratories fixed/static disk 316 stainless die with a 0.8 cm diameter die cavity. A hardened steel punch was then inserted into the cavity and the material was compressed at 2000 psi for 4-5 minutes using a bench top hydraulic press. The punch is then removed to expose the 0.5 cm^2 pellet surface. A Viton gasket is then placed around the threaded shoulder of the die and a polypropylene cap is threaded onto the die. This process can be repeated to generate as many pellets as is necessary for the experiment.
A Distek Dissolution System equipped with a model number TCS0200C temperature control system, was filled with water and set to a temperature of 37.3° C. The vessel cavities were then equipped with four 1 L flat-bottomed Distek dissolution vessels.

[2] = Intrinsic dissolution profile as a function of pH; type: physicochemical; settings: result in words; for pH dissolution profile: 0.1N HCl (pH 1), pH 4.5 acetate buffer, pH 6.8 phosphate buffer, water, 37° C.; for dissolution behavior at the low pH condition: 0.1N HCl
Experimental: as §1
The following procedures were derived from USP <1087> Intrinsic Dissolution and USP <711> Dissolution methods, as well as manufacturer recommended procedures for use of the International Crystals Laboratories intrinsic dissolution disks.
as §2, with “45.00-55” for “85.00-95.00”
A Distek Dissolution System equipped with a model number TCS0200C temperature control system was filled with water and set to a temperature of 37.3° C. The vessel cavities were then equipped with four 1 L flat-bottomed Distek dissolution vessels. Four vessels were then filled with 500 mL of the following media: 0.1N HCl, pH 4.5 acetate buffer, pH 6.8 phosphate buffer, and USP grade water. The solutions were allowed to warm in the water bath for approximately 1 hour, but not exceeding 3 hours, or until the temperature of the media matched that of the water bath. Paddles were then mounted to the Distek stirring apparatus above the four dissolution vessels such that the distance between the paddle and the die face is 1 inch. The paddle speed is then set to 50 RPM.
The pellet prepared as described above was submerged into a vessel prepared as described above, with the pellet surface facing up (metal die up, polypropylene cap facing down). Forceps are used to aid this process so that the pellet apparatus can be gently placed into the bottom of the vessel. A timer is used to track the sampling intervals, and is started when the pellet is dropped into the solution. The lid to the dissolution apparatus is then lowered and the stirring apparatus is activated. Some planning is required in spacing out pellet drops such that each vessel can be sampled at the desired time intervals. Sampling is done by aspirating 10 mL of the solution using a Popper® Micro-Mate® Interchangeable Hypodermic Syringe equipped with a Vortex Pharma Group 10 micron cannula porous filter. This filter should be replaced after each use. Although sampling intervals can change from experiment to experiment, the following has been heavily utilized for the experiments described herein.

[3] = Modified dose dumping protocol: ethanol solutions in the absence of the 0.1N HCl media

Compound: Amorphous Hydrocodone Pamoate Form I [amorphous Form I]
- dose dumping dissolution profile ([1]; result in words): somewhat erratic compared with Form II

Compound: COc1ccc2c3c1O[C@H]1C(=O)CC[C@H]4[C@@H](C2)N(C)CC[C@]314.O=C(O)C(O)C(O)C(=O)O [hydrocodone bitartrate, reference compound]
- pH dissolution profile [2]: immediate release (IR) characteristics
- dose dumping dissolution profile ([1]; result in words): exhibit dose dumping propensities

Compound: COc1ccc2c3c1O[C@H]1C(=O)CC[C@@]4(O)[C@@H](C2)N(C)CC[C@]314.Cl [oxycodone hydrochloride, reference compound]
- pH dissolution profile [2]: immediate release (IR) characteristics
- dose dumping dissolution profile ([1]; result in words): apparent solution equilibrium was obtained within minutes
- dissolution in the control condition ([1]; 0.1 N HCl without EtOH, result in words): complete dissolution within minutes
- enhancement of the release profile by the acidic media ([1]; at each ethanol level, comparing FIGS. 58 and 59): more than 20 % (absolute)
- amount of oxycodone extracted / opiate immediately released ([3]; 40% EtOH (about 80 proof), no 0.1N HCl): about 50%

Compound: Hydrocodone Xinafoate
- pH dissolution profile [2]: extended release at pH 1, and independent release as the pH increases

Compound: CN(C)CCCN1c2ccccc2CCc2ccccc21.CN(C)CCCN1c2ccccc2CCc2ccccc21.O=C(O)c1cc2ccccc2c(Cc2c(O)c(C(=O)O)cc3ccccc23)c1O [imipramine pamoate, reference compound]
- dose dumping dissolution profile ([1]; result in words): exhibited dose dumping properties

Compound: Oxycodone Pamoate [amorphous oxycodone pamoate]
- time to complete (full) release of the opiate ([1]; 0.1N HCl media, no EtOH): about one
- dose dumping dissolution profile ([1]; result in words): no dose dumping benefit
- dissolution profile as a function of ethanol concentration ([3]; 0.1N HCl with 0% EtOH, and 5, 20, 40% EtOH without acid, result in words): slow linear process
- opiate released ([3]; 40% EtOH, over about one hour): approximately 60%
- pamoate released (apparent pamoate equilibrium solubility) ([3]; 40% ethanol condition, FIG. 62): about 85%
- time to apparent pamoate equilibrium solubility ([3]; 40% ethanol condition, FIG. 62): approximately 45 minutes

Compound: Amorphous Hydrocodone Pamoate Acetone Solvate [solvated amorphous form]
- dose dumping dissolution profile ([1]; result in words): somewhat erratic compared with Form II

Compound: Oxycodone Pamoate [polymorphic form of oxycodone pamoate]
- pH dissolution profile [2]: essentially identical pH dissolution profile as the amorphous form
- active released ([1]; 0.1N HCl containing 5% EtOH): about 70%
- active released ([1]; 0.1N HCl): about 70%
- equilibrium solubility (release) ([1]; 20% EtOH in 0.1N HCl, reached in about 30 minutes): ~10%
- release ([1]; after 3 hours): approximately 40%
- release ([1]; after about 80 minutes): ~10%

Compound: Oxycodone Xinafoate
- pH dissolution profile [2]: poor dissolution profile at pH 1 with a gradual release as the pH increases
- dose dumping dissolution profile ([1]; result in words): dose dumps immediately at the higher EtOH concentrations

Compound: Amorphous Hydrocodone Pamoate Form II
- dissolution behavior at the low pH condition [2]: ranks between that observed for Form I and the acetone solvated form
- dose dumping profile at the 5% ethanol condition ([1]; result in words): slow (and essentially identical) dissolution response
- dose dumping profile at the 20% ethanol condition ([1]; result in words): slow (and essentially identical) dissolution response

Compound: Polymorphic Hydrocodone Pamoate Form II
- dissolution behavior at the low pH condition [2]: slower release than Form I
- dose dumping profile at the 5% ethanol condition ([1]; result in words): essentially identical to the 0.1N HCl condition
- dose dumping profile at the 20% ethanol condition ([1]; result in words): did not accelerate dose dumping
- dose dumping profile at the 40% ethanol condition ([1]; 40% ethanol in 0.1N HCl, result in words): did not promote dose dumping
